Tests used:
[1] = biological target: T1, CYP2D6 (Homo sapiens, UniProt P10635); assay: CYP2D6 inhibition in pooled human liver microsomes (dextromethorphan O-demethylation); assay type: in vitro ADME; conditions: Friedelin 100 μM, pooled HLMs
T1 construct: from tissue; host or cells: human liver microsomes
Experimental: (§1) All incubations were performed in triplicate, and the mean values were utilized. The typical incubation systems contained 100 mM potassium phosphate buffer (pH 7.4), NADPH generating system (1 mM NADP^+, 10 mM glucose-6-phosphate, 1 U/mL of glucose-6-phosphate dehydrogenase, and 4 mM MgCl2), the appropriate concentration of HLMs, a corresponding probe substrate and Friedelin (or positive inhibitor for different probe reactions) in a final volume of 200 μL.
(§2) The concentration of Friedelin was 100 μM, and the positive inhibitor concentrations were as follows: 1 μM ketoconazole for CYP3A4, 10 μM furafylline for CYP1A2, 10 μM tranylcypromine for CYP2A6, 50 μM clomethiazole for CYP2E1, 10 μM quinidine for CYP2D6, 10 μM sulfaphenazole for CYP2C9, 50 μM tranylcypromine for CYP2C19, 5 μM montelukast for CYP2C8. Probe substrates, positive inhibitors (except for dextromethorphan and quinidine which were dissolved in water) and Friedelin were dissolved in methanol, with a final concentration of 1% (v/v) and 1% neat methanol was added to the incubations without inhibitor. […] The instrument used in this study were Agilent 1260 series instrument with DAD and FLD detector, and the quantitative assay for the corresponding metabolites was performed as previously reported (Lang et al. [2016]; Zhang et al. [2017]). […]

[2] = biological target: T2, CYP2E1 (Homo sapiens, UniProt P05181); assay: CYP2E1 inhibition in pooled human liver microsomes (chlorzoxazone 6-hydroxylation); assay type: in vitro ADME; conditions: pooled HLMs
T2 construct: effects of Friedelin on CYP2E1 catalyzed reactions (chlorzoxazone 6-hydroxylation) in pooled HLM; from tissue; host or cells: pooled human liver microsomes
T2 sequence (P05181 whole entry): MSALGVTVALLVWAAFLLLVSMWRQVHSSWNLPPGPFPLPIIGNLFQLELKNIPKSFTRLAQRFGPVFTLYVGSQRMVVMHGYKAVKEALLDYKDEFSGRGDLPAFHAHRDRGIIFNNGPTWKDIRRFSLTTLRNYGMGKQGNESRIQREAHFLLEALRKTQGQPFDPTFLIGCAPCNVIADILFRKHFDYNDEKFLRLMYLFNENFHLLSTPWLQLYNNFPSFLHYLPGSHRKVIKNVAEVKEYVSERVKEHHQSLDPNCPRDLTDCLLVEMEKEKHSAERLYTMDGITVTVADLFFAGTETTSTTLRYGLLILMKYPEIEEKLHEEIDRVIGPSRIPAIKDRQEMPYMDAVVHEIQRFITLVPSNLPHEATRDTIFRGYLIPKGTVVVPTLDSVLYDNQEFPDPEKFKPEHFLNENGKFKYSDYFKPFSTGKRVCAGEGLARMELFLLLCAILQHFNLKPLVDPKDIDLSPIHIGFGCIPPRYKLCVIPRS
Experimental: as §1
(§3) The concentration of Friedelin was 100 μM, and the positive inhibitor concentrations were as follows: 1 μM ketoconazole for CYP3A4, 10 μM furafylline for CYP1A2, 10 μM tranylcypromine for CYP2A6, 50 μM clomethiazole for CYP2E1, 10 μM quinidine for CYP2D6, 10 μM sulfaphenazole for CYP2C9, 50 μM tranylcypromine for CYP2C19, 5 μM montelukast for CYP2C8. Probe substrates, positive inhibitors (except for dextromethorphan and quinidine which were dissolved in water) and Friedelin were dissolved in methanol, with a final concentration of 1% (v/v) and 1% neat methanol was added to the incubations without inhibitor. There was a 3 min preincubation period (at 37 °C) before the reaction was initiated by adding an NADPH-generating system. The reaction was terminated by adding a 100 μL acetonitrile (10% trichloroacetic acid for CYP2A6) internal standard mix, and the solution was placed on ice. The mixture was centrifuged at 12,000 rpm for 10 min, and an aliquot (50 μL) of the supernatant was transferred for HPLC analysis. The instrument used in this study were Agilent 1260 series instrument with DAD and FLD detector, and the quantitative assay for the corresponding metabolites was performed as previously reported (Lang et al. [2016]; Zhang et al. [2017]).
(§4) Friedelin (100 μM) was used to initially screen for its direct inhibitory effects toward different human CYP isoforms. […] Ki values were obtained by incubating various concentrations of different probe substrates (20–100 μM testosterone, 25–200 μM chlorzoxazone) in the presence of 0–50 μM Friedelin.
(§5) The enzyme kinetic parameters for the probe reaction were estimated from the best fit line using least-squares linear regression of the inverse substrate concentration versus the inverse velocity (Lineweaver–Burk plots), and the mean values were used to calculate Vmax and Km. Inhibition data from the experiments that were conducted using multiple compound concentrations were represented by Dixon plots, and inhibition constant (Ki) values were calculated using nonlinear regression according to the following equation: v=(VmaxS)/(Km(1+I/Ki)+S), where I is the concentration of the compound, Ki is the inhibition constant, S is the concentration of the substrate, and Km is the substrate concentration at half the maximum velocity (Vmax) of the reaction. […]

[3] = biological target: T3, CYP3A4 (Homo sapiens, UniProt P08684); assay: Time-dependent inhibition study of CYP3A4 in human liver microsomes; assay type: in vitro ADME
T3 construct: effects of Friedelin on CYP3A4 catalyzed reactions (testosterone 6β-hydroxylation) in pooled HLM; from tissue; host or cells: pooled human liver microsomes
T3 sequence (P08684 whole entry): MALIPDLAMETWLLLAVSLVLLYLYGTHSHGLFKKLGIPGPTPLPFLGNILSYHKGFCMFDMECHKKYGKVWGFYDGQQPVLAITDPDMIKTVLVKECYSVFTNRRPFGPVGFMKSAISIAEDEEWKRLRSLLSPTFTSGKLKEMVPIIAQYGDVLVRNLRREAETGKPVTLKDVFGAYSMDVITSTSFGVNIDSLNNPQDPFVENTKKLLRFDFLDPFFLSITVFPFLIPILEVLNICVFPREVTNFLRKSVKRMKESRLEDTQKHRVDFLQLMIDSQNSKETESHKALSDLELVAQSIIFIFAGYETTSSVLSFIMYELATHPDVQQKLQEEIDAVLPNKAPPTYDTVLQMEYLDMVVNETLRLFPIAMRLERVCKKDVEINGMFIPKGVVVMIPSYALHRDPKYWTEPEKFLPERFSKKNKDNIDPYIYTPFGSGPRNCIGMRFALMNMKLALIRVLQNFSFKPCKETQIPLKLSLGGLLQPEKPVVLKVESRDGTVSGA
Experimental: (§6) To determine whether Friedelin could inhibit the activity of CYP3A4 and 2E1 in a time-dependent manner, Friedelin (20 μM) was preincubated with HLMs (1 mg/mL) in the presence of an NADPH-generating system for 30 min at 37 °C. After incubation, an aliquot (20 μL) was transferred to another incubation tube (final volume 200 μL) containing an NADPH-generating system and probe substrates whose final concentrations were approximate to Km. Then, further incubations were performed to measure the residual activity. After being incubated for different time (0–30 min), the reactions were terminated by adding a 100 μL acetonitrile internal standard mix and then placed on ice; the corresponding metabolites were determined by HPLC. To determine the Ki and kinact values for the inactivation of CYP3A4, the incubations were conducted using higher probe substrate concentrations (approximately 4-fold Km values) and various concentrations of Friedelin (0–50 μM) after different preincubation times (0–30 min), with a two-step incubation scheme, as described above.

[4] = biological target: T4, CYP2C9 (Homo sapiens, UniProt P11712); assay: CYP2C9 inhibition in pooled human liver microsomes (diclofenac 4'-hydroxylation); assay type: in vitro ADME; conditions: Friedelin 100 μM, pooled HLMs
T4 construct: from tissue; host or cells: human liver microsomes
T4 sequence (P11712 whole entry): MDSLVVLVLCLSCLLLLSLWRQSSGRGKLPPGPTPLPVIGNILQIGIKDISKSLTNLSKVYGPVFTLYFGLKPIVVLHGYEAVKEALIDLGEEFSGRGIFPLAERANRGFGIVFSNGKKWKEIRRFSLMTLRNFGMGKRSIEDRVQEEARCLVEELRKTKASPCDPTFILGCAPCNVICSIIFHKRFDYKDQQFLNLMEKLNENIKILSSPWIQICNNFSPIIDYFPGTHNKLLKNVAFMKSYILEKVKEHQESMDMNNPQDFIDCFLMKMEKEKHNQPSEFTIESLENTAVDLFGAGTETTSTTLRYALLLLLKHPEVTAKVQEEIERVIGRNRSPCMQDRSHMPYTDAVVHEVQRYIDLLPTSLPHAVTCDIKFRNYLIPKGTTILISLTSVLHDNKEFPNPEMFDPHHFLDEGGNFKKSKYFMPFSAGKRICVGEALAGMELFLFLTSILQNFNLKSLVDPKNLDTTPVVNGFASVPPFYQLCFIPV
Experimental: as §1, §2

[5] = test system: P-glycoprotein (P-gp); set-up: method as in Lee et al. [2017]; conditions: ref Lee et al. [2017]; cited from earlier work
[6] = biological target: T2, CYP2E1; assay: Time-dependent inhibition study of CYP2E1 in human liver microsomes; assay type: in vitro ADME; conditions: Friedelin 20 μM, 30 min preincubation with HLM and NADPH
Experimental: as §6, with “HPLC.” for “HPLC. To determine the Ki and kinact values for the inactivation of CYP3A4, the incubations were conducted using higher probe substrate concentrations (approximately 4-fold Km values) and various concentrations of Friedelin (0–50 μM) after different preincubation times (0–30 min), with a two-step incubation scheme, as described above.”

[7] = biological target: T3, CYP3A4; assay: CYP3A4 inhibition in pooled human liver microsomes (testosterone 6β-hydroxylation); assay type: in vitro ADME; conditions: pooled HLMs
Experimental: as §1, §3, §4, §5

[8] = biological target: T5, CYP2C8 (Homo sapiens, UniProt P10632); assay: CYP2C8 inhibition in pooled human liver microsomes (paclitaxel 6α-hydroxylation); assay type: in vitro ADME; conditions: Friedelin 100 μM, pooled HLMs
T5 construct: from tissue; host or cells: human liver microsomes
T5 sequence (P10632 1-490): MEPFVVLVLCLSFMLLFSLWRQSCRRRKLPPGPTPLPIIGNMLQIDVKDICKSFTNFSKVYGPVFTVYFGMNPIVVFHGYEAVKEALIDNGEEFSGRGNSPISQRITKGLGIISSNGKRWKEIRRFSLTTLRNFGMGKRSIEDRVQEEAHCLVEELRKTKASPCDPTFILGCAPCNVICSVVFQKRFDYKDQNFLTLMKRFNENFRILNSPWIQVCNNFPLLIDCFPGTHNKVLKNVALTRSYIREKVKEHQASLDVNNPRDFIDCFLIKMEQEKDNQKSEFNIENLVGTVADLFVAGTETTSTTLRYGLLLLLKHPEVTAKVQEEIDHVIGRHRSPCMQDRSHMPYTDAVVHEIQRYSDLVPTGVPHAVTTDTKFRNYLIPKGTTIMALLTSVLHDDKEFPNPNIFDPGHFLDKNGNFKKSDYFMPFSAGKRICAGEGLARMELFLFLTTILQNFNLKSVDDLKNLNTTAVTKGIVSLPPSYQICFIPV
Experimental: as §1, §2

[9] = biological target: T6, CYP2C19 (Homo sapiens, UniProt P33261); assay: CYP2C19 inhibition in pooled human liver microsomes (S-mephenytoin 4-hydroxylation); assay type: in vitro ADME; conditions: Friedelin 100 μM, pooled HLMs
T6 construct: from tissue; host or cells: human liver microsomes
T6 sequence (P33261 whole entry): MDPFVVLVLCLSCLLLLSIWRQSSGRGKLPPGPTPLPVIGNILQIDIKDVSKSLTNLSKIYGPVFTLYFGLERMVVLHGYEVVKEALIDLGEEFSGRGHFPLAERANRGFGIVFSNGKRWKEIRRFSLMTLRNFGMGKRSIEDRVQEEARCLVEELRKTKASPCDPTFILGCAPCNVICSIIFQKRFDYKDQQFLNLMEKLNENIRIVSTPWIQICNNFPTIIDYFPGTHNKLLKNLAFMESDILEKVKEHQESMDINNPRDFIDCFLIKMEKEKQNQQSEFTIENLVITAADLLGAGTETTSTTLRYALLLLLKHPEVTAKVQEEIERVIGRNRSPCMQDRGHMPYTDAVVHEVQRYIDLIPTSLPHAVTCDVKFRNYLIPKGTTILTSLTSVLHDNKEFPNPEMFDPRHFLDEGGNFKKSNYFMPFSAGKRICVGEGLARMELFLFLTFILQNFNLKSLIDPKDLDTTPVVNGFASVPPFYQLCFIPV
Experimental: as §1, §2

[10] = biological target: T7, CYP2A6 (Homo sapiens, UniProt P11509); assay: CYP2A6 inhibition in pooled human liver microsomes (coumarin 7-hydroxylation); assay type: in vitro ADME; conditions: Friedelin 100 μM, pooled HLMs
T7 construct: from tissue; host or cells: human liver microsomes
T7 sequence (P11509 1-494): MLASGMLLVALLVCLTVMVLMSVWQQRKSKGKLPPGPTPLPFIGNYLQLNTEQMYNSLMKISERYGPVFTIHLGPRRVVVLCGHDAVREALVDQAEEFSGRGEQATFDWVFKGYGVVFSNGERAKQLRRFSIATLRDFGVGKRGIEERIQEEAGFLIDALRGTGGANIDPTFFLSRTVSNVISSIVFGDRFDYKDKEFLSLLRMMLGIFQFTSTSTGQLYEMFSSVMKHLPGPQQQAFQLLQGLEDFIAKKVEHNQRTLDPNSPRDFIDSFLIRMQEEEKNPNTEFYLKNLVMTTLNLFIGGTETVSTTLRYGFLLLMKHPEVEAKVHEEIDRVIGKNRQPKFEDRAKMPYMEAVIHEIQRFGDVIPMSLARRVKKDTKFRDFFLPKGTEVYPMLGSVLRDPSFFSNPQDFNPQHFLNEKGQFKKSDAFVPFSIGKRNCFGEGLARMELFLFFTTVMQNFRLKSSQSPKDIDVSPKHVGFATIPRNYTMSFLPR
Experimental: as §1, §2

[11] = biological target: T8, CYP1A2 (Homo sapiens, UniProt P05177); assay: CYP1A2 inhibition in pooled human liver microsomes (phenacetin O-demethylation); assay type: in vitro ADME; conditions: Friedelin 100 μM, pooled HLMs
T8 construct: from tissue; host or cells: human liver microsomes
T8 sequence (P05177 1-516): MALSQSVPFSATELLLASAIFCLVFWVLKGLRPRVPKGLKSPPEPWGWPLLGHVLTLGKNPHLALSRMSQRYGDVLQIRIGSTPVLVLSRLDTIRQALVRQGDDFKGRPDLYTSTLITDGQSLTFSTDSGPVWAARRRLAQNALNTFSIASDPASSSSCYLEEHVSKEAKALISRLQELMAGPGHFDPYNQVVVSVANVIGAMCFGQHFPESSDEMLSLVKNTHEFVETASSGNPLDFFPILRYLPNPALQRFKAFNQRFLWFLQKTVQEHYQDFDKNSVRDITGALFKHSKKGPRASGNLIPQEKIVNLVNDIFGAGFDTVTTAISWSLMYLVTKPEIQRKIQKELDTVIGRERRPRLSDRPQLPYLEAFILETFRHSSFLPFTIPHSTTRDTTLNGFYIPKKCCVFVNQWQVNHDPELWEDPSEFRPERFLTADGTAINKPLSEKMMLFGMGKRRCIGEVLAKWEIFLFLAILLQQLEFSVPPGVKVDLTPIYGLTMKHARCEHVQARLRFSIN
Experimental: as §1, §2

T1 sequence (P10635 whole entry): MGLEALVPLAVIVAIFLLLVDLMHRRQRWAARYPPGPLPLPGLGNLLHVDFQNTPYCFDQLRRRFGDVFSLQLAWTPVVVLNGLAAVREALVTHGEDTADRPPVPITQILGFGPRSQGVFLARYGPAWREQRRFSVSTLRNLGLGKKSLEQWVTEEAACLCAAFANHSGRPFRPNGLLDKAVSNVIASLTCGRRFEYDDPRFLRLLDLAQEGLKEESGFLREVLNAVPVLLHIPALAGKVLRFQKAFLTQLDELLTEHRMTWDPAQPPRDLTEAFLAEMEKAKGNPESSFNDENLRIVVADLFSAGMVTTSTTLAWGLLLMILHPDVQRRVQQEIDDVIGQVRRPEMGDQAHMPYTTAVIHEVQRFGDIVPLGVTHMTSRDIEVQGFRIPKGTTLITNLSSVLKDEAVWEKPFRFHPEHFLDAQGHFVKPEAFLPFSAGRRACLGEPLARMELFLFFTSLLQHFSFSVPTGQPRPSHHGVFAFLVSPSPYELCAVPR

Inhibition of CYP2D6 activity [1]: could not inhibit | Mode of inhibition of CYP2E1 ([2]; Lineweaver–Burk plots): competitive | activity at 100 μM ([2]; human, pooled human liver microsomes, pH 7.4, probe chlorzoxazone (6-hydroxylation), Friedelin 100 μM, chlorzoxazone 6-hydroxylation, read-out: CYP2E1 activity, % of control activity): 18.9% | IC50 ([2]; chlorzoxazone 6-hydroxylation): 22.5 µM | Ki ([2]; secondary Lineweaver–Burk plot, chlorzoxazone 25–200 μM): 18 µM | Time-dependent inhibition of CYP3A4 activity ([3]; Friedelin 20 μM, 30 min preincubation with HLM and NADPH): decreased with the incubation time | kinact/KI ([3]; human, human liver microsomes, HLM, Friedelin 0–50 μM, preincubation 0–30 min with NADPH, read-out: Kinact/Ki for CYP3A4 inactivation (converted)): 80.7 M⁻¹ s⁻¹ | CYP3A4 inactivated each minute (Kinact) ([3]; saturating concentration of Friedelin incubated with HLM): approximately 5.9% | Inhibition of CYP2C9 activity [4]: could not inhibit | Time-dependent inhibition of CYP2E1 activity [6]: not affected | Mode of inhibition of CYP3A4 ([7]; Lineweaver–Burk plots): noncompetitive | activity at 100 μM ([7]; human, pooled human liver microsomes, pH 7.4, probe testosterone (6β-hydroxylation), Friedelin 100 μM, testosterone 6β-hydroxylation, read-out: CYP3A4 activity, % of control activity): 7.5% | Ki ([7]; secondary Lineweaver–Burk plot, testosterone 20–100 μM): 6.16 µM | IC50 ([7]; testosterone 6β-hydroxylation): 10.8 µM | Inhibition of CYP2C8 activity [8]: could not inhibit | Inhibition of CYP2C19 activity [9]: could not inhibit | Inhibition of CYP2A6 activity [10]: could not inhibit | Inhibition of CYP1A2 activity [11]: could not inhibit
SMILES: C[C@H]1C(=O)CC[C@@H]2[C@]1(C)CC[C@H]1[C@@]2(C)CC[C@@]2(C)[C@@H]3CC(C)(C)CC[C@]3(C)CC[C@]12C [Friedelin]
Effect on ATPase activity of P-glycoprotein [5]: could suppress ATPase activity

— article PMC6130513, “In vitro inhibitory effects of Friedelin on human liver cytochrome P450 enzymes” (Pharmaceutical Biology, 2018)
